From patent publication US12653194B2, “Compositions and methods for promoting soil microbials for plant health and stress tolerance” (The United States of America, as represented by The …, priority 2021, dated 2026)

System: soil microbials (fungi and bacteria)
Test: Peach orchard field trial: soil fungal and bacterial abundance (16S rRNA / ITS sequencing, PCA)
Type: in vivo
Settings: applied in 110 mL water within 15 cm of tree trunk plus 190 mL water, extract 34 HCE about 16x diluted (0.0625xHCE), 300,000 IJs per tree
Text: The pheromone can be extracted with alcohol in a concentration range from about 0% to about 95%. The liquid (supernatant) may be removed and concentrated to produce a dry extract by using a stream of nitrogen, by rotary evaporation, by lyophilization, or by any equivalent means. The dry powder may be resuspended in water and centrifuged to separate insoluble debris from water-soluble pheromones. For storage the supernatant may be concentrated to dryness using a lyophilizer, a spray drier, or any equivalent means. The concentration and ratio of the pheromone mixture was evaluated for its activity on plants. […] In addition, for example, one insect host cadaver extract from Galleria mellonella (average weight of G. mellonella larvae, wax worm, is estimated to be approximately 232+/−57 mg) is diluted in 200 μL water which is physiologically relevant concentration as 1×HCE. When one insect host cadaver extract from Galleria mellonella is resuspended in 3200 μL (about 16 times dilution or 0.0625×HCE). Total 34 HCE S. carpocapsae pheromone extracts with 300,000 S. carpocapsae IJs in 110 mL of water in 15 cm soil surrounding the tree trunk. Then an additional 190 mL of water was added to the 15 cm of soil surrounding the tree trunk. […]

Structure (SMILES): CCOP(=S)(OCC)Oc1nc(Cl)c(Cl)cc1Cl [Chlorpyrifos]
- time for which soil microbials were promoted / soil microbial abundance increased: ≤ 2 weeks
